The record followed here is patent US20240239785A1, “SUBSTITUTED 2-(2,6-DIOXOPIPERIDIN-3-YL)-5-(1-PIPERIDIN-4-YL)ISOINDOLINE-1,3-DIONE DERIVATIVES AND USES THEREOF” (Neomorph, Inc., priority 2021, published 2024).

The target of data set [1] is T1, IKZF2 (Homo sapiens, UniProt Q96SW2+Q9UKS7).
T1 construct: endogenous in cells; host or cells: MOLT4 (CRISPR/Cas9 HiBit knock-in at the IKZF2 locus)
Description: MOLT4 IKZF2 HiBit assay. The class given is cell-based. The conditions noted are these: MOLT4 IKZF2 HiBit cells; for DC50: 6 hours incubation, 10-point dose response from 30 μM; for Dmax at 30 µM: MOLT-4, 6 hr (Dmax), read-out: % reduction of IKZF2 @ 30 μM (6 hr). Here is the method:
MOLT4 IKZF2 HiBit Assay Protocol:
This protocol used MOLT4 cells that were engineered using CRISPR/Cas9-mediated genomic insertion of HiBit, tagged to the N terminus of the IKZF2 coding sequence. Day 1. A 10-point dose response was created starting from 30 μM down to InM using a Tecan D300e. Next was added 8,000 cells/well of the MOLT4 IKZF2 HiBit cells to the compound plate. The compounds plate was incubated for 6 hours. Day 2. Nano-Glo HiBit Lytic Buffer/Nano-Glo HiBit Lytic substrate/LgBit Protein mix was added to each well and the compound plate was incubated for 15 minutes. Finally, luminescence signal was read using a BMG Labtech PHERAstar FSX. Data was normalized to DMSO and graphed using GraphPad Prism to determine the concentration points at which 50% of HiBiT-Helios degradation was achieved by each compound. The extent of degradation (range of luminescence) from the highest to lowest concentration points was calculated to determine Dmax.

For data set [2], the target named is hERG (Homo sapiens, UniProt Q12809). The experiment in a line: hERG IC50. In general terms: The hERG channel carries a current that helps repolarise heart muscle cells.
Chain of hERG (Q12809 whole entry): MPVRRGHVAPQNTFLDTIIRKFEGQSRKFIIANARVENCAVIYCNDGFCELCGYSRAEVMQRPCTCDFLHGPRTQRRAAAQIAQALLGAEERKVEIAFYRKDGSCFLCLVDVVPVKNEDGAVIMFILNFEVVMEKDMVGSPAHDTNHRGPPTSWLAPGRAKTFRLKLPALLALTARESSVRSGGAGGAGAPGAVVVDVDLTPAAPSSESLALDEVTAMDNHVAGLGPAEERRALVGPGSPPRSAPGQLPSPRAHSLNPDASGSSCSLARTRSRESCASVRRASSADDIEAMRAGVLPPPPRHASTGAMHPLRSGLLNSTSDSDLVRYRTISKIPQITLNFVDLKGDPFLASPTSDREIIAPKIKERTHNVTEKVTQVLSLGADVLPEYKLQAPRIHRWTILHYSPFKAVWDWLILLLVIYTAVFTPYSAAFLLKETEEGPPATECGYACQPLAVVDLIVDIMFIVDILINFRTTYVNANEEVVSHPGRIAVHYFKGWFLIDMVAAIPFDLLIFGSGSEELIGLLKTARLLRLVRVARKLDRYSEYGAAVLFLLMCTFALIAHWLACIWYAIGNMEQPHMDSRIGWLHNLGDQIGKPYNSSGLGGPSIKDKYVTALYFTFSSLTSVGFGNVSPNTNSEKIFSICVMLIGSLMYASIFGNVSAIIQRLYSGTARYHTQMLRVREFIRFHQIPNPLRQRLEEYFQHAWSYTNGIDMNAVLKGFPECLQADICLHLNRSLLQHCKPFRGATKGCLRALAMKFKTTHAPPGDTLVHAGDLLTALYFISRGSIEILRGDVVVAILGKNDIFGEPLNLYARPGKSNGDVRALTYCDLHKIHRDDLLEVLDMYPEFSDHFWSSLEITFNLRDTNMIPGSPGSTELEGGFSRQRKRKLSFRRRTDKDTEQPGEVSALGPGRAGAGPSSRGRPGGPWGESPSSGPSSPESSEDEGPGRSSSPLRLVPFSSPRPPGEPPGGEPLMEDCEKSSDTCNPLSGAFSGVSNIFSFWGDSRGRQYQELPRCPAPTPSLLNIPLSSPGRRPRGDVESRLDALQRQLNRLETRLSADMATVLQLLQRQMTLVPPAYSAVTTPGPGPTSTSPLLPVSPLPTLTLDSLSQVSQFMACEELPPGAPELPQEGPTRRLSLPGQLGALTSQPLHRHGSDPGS

Structures can show the parent of a compound that is named as a salt. Where two headings read alike, the source gives them in different places.

What is called IC50 is the concentration that gives 50% inhibition. A lower IC50 goes with higher potency.

T1 sequence (Q9UKS7 whole entry): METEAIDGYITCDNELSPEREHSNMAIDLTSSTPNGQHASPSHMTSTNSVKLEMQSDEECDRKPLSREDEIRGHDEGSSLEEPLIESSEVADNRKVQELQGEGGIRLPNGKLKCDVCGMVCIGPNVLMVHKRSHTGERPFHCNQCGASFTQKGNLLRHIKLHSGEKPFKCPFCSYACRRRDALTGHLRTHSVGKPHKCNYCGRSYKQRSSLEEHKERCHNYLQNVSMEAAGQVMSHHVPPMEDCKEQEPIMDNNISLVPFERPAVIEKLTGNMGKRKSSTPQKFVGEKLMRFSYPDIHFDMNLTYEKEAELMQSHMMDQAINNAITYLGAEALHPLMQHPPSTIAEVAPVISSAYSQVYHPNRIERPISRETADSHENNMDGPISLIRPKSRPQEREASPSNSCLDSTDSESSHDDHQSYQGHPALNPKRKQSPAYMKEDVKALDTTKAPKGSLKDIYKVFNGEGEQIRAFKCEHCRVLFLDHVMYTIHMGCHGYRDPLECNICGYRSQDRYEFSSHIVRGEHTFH
T1 sequence (Q96SW2 whole entry): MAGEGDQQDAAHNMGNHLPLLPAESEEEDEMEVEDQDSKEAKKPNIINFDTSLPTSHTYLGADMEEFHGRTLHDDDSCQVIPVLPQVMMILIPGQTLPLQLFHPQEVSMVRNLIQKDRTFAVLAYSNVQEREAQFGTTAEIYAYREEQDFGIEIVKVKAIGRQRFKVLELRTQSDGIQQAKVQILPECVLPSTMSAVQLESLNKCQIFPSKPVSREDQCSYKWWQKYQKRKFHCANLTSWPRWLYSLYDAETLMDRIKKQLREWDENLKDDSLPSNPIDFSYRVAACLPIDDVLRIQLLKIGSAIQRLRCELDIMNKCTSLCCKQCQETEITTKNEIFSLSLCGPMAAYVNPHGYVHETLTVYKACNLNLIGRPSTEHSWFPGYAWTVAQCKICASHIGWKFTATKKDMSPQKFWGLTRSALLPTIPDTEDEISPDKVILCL
T1 sequence (Q16531 whole entry partner): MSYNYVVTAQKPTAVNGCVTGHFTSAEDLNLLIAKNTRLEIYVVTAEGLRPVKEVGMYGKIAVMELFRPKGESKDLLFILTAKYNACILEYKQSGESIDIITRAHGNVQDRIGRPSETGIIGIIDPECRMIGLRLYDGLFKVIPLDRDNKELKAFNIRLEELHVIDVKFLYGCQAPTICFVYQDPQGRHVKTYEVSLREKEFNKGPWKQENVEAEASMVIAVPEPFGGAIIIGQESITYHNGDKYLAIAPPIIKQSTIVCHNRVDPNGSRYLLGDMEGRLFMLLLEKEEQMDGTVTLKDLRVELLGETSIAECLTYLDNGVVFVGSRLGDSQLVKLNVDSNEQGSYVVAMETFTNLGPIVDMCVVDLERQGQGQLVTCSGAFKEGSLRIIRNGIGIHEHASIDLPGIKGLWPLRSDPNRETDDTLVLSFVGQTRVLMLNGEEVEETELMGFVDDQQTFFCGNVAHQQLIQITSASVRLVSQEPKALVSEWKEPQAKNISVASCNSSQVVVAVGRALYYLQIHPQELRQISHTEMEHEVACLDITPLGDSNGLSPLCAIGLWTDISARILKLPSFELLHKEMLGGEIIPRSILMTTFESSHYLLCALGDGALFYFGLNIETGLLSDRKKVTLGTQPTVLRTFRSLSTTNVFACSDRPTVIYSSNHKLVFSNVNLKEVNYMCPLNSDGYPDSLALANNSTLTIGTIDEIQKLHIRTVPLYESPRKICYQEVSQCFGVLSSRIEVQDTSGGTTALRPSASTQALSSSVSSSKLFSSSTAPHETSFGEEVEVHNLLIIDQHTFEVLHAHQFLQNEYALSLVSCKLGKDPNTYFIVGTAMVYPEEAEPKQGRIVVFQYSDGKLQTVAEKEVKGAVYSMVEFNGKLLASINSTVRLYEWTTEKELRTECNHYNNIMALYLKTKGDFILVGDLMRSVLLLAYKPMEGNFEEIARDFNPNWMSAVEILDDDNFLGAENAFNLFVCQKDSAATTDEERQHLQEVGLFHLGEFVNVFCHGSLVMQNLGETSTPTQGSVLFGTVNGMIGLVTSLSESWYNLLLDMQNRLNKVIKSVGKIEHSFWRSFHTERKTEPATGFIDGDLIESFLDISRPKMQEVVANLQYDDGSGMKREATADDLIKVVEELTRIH

`O=C1CCC(N2C(=O)c3ccc(C4(O)CCN(C5CCc6ncccc65)CC4)cc3C2=O)C(=O)N1` (centres unmarked) [Compound 7, 5-(1-{5H,6H,7H-cyclopenta[b]pyridin-5-yl}-4-hydroxypiperidin-4-yl)-2-(2,6-dioxopiperidin-3-yl)-2,3-dihydro-1H-isoindole-1,3-dione, HCl salt]: in data set [1], the DC50 was determined as 9 nM and the Dmax at 30 µM is 90%. In data set [2], this molecule showed an IC50 of more than 30000 nM.

In the case of `CC1CC(O)(c2ccc3c(c2)C(=O)N(C2CCC(=O)NC2=O)C3=O)CCN1Cc1ccccc1` (centres unmarked) [Compound 15, 5-(1-benzyl-4-hydroxy-2-methylpiperidin-4-yl)-2-(2,6-dioxopiperidin-3-yl)-2,3-dihydro-1H-isoindole-1,3-dione], in data set [1], the DC50 came out at 12 nM and the Dmax at 30 µM was 66%. The molecule also had a half-maximal inhibitory concentration (IC50) in data set [2] of more than 30000 nM.

`O=C1CCC(N2C(=O)c3ccc(C4(O)CCN(Cc5ccc(F)c(F)c5)CC4)cc3C2=O)C(=O)N1` (centres unmarked) [Compound 60, 5-{1-[(3,4-difluorophenyl)methyl]-4-hydroxypiperidin-4-yl}-2-(2,6-dioxopiperidin-3-yl)-2,3-dihydro-1H-isoindole-1,3-dione, HCl salt]: in data set [1], the DC50 worked out at 6 nM and the Dmax at 30 µM turned out to be 80%. The same molecule gave an IC50 in data set [2] of 23000 nM.

In the case of `O=C1CCC(N2C(=O)c3ccc(C4(O)CCN(Cc5ccc6scnc6c5)CC4)cc3C2=O)C(=O)N1` (centres unmarked) [Compound 111, 5-{1-[(1,3-benzothiazol-5-yl)methyl]-4-hydroxypiperidin-4-yl}-2-(2,6-dioxopiperidin-3-yl)-2,3-dihydro-1H-isoindole-1,3-dione, HCl salt], in data set [1], the DC50 was 5 nM and the Dmax at 30 µM was 83%. In data set [2], this molecule displayed a concentration for half-maximal inhibition (IC50) of more than 30000 nM.

`O=C1CCC(N2C(=O)c3ccc(C4(O)CCN(Cc5ccc(F)cc5)CC4)c(F)c3C2=O)C(=O)N1` (centres unmarked) [Compound 132, 2-(2,6-dioxopiperidin-3-yl)-4-fluoro-5-(1-(4-fluorobenzyl)-4-hydroxypiperidin-4-yl)isoindoline-1,3-dione]: in data set [1], the DC50 was determined as 7 nM and the Dmax at 30 µM worked out at 79%. The IC50 in data set [2] (human) worked out at 30000 nM.

As to `CCCN1CCC(O)(c2ccc3c(c2)C(=O)N(C2CCC(=O)NC2=O)C3=O)CC1` (centres unmarked) [Compound 146, 2-(2,6-dioxopiperidin-3-yl)-5-(4-hydroxy-1-propylpiperidin-4-yl)-2,3-dihydro-1H-isoindole-1,3-dione, HCl salt], in data set [1], the DC50 was 43 nM and the Dmax at 30 µM was determined as 69%.

Regarding `O=C1CCC(N2C(=O)c3ccc(C4(O)CCN(Cc5ccc(-c6nccs6)cc5)CC4)cc3C2=O)C(=O)N1` (centres unmarked) [Compound 147, 2-(2,6-dioxopiperidin-3-yl)-5-(4-hydroxy-1-{[4-(1,3-thiazol-2-yl)phenyl]methyl}piperidin-4-yl)-2,3-dihydro-1H-isoindole-1,3-dione, HCl salt], in data set [1], the DC50 worked out at 8 nM and the Dmax at 30 µM worked out at 88%.

In the case of `CCCN1CCC(O)(c2ccc3c(c2F)C(=O)N(C2CCC(=O)NC2=O)C3=O)CC1` (centres unmarked) [Compound 148, 2-(2,6-dioxopiperidin-3-yl)-4-fluoro-5-(4-hydroxy-1-propylpiperidin-4-yl)-2,3-dihydro-1H-isoindole-1,3-dione, HCl salt], in data set [1], the DC50 worked out at 30 nM and the Dmax at 30 µM stood at 73%.

Turning to `O=C1CCC(N2C(=O)c3ccc(C4(O)CCN(CC(O)c5ccccc5)CC4)cc3C2=O)C(=O)N1` (centres unmarked) [Compound 149, 2-(2,6-dioxopiperidin-3-yl)-5-(4-hydroxy-1-(2-hydroxy-2-phenylethyl)piperidin-4-yl)isoindoline-1,3-dione], in data set [1], the DC50 was 22 nM and the Dmax at 30 µM turned out to be 76%.
